Measurements published in patent US4882171A, “Vanadium-peroxide compositions as insulin mimickers” (priority 1986, dated 1989).

Legend:
[1] = test system: rat adipocytes (lipogenesis); assay: Lipogenesis in rat adipocytes (Example 4); type: cell-based; conditions: 10^-7 M vanadate with H2O2 10^-3 M equals vanadate alone at 10^-4 M
[2] = test system: 125I-IGF-2 cell surface binding, fat cell; conditions: vanadate alone; cited from earlier work
[3] = test system: rat adipocytes (lipolysis); assay: Lipolysis in rat adipocytes (Example 4); type: cell-based; conditions: vanadate with H2O2 10^-3 M, or vanadate alone
[4] = test system: diabetic rats; conditions: drinking water; cited from earlier work
[5] = test system: adipocytes (protein synthesis); assay: Protein synthesis in adipocytes, 3H-leucine incorporation (Example 5, Table 2); type: cell-based
Description: Adipocytes were isolated by collagenase digestion and protein synthesis was assessed by the incorporation 3,4,5-^3 H-leucine (0.5 uCi/ml) over 1 h at 37° C. into trichloroacetic acid (10%) precipitable material.
This was followed by a 1 h incubation with radiolabelled leucine. The reaction was terminated by the addition of cold TCA and centrifugation. The pellet was counted in a beta counter.

[6] = Blood glucose in live rats after jugular vein injection (Example 6A); type: in vivo, rat; conditions: 0.2 to 0.4 ml of 1 mM solution, 200 g rats
Description: In live rat studies vanadate (sodium salt) and the reaction mixture (phosphate-buffered saline containing vanadate and H2 O2 at neutral pH) was injected into 200 g rats via the internal jugular vein. […] This decrease was short-lived.

[7] = test system: 125I-IGF-2 binding, rat adipocytes; assay: IGF-2 binding to rat adipocytes (Example 1, Table 1); type: cell-based; conditions: insulin 10 ng/ml, vanadate 1 mM and/or H2O2 1 mM, 15 min preincubation at 37° C.; control = 125I-IGF-2 alone
[8] = test system: insulin receptor tyrosine kinase; assay: Insulin receptor tyrosine kinase activation in adipocytes, 32P incorporation into poly (Glu, Tyr) (Example 3, FIG. 3); type: cell-based, rat
[9] = test system: 125I-IGF-II binding, rat adipocytes; assay: Binding of labelled IGF-II to rat adipocytes, vanadate dose response (Example 2, FIG. 2); type: cell-based; conditions: vanadate alone; % of that seen with maximal doses of insulin
Description: Determination of ^125 I-IGF-II binding (shown in FIG. 2) is achieved by incubating adipocytes with vanadate (white circles on Figure); hydrogen peroxide (1mM) plus vanadate (black circles); and insulin (black squares) for 15 minutes at 37 C. Each value shown is the mean ± S.E. (Standard Error) of three separate experiments.

[10] = Blood sugar in intact rats after jugular vein injection (Example 6B); type: in vivo, rat (male Sprague-Dawley); conditions: 0.5 ml of 2 mM vanadate
Description: Solutions were injected into the jugular vein and blood samples were removed for determination of blood sugar by a standard glucose oxidase procedure.

Molecule | vanadate concentration giving equal augmentation of lipogenesis [1] | insulin mimicking action (in words) [2] | vanadate concentration inhibiting lipolysis maximally [3] | effect on blood glucose (in words) [4] | effect on cardiac performance (in words) [4] | Leucine Incorp (% of control ± S.E.) ([5]; 2 uM, 2 h at 37° C., then 1 h radiolabelled leucine, n=2) | Leucine Incorp (% of control ± S.E.) ([5]; 10 uM, 2 h at 37° C., then 1 h radiolabelled leucine, n=6) | Leucine Incorp (% of control ± S.E.) ([5]; 50 uM, 2 h at 37° C., then 1 h radiolabelled leucine, n=5) | Leucine Incorp (% of control ± S.E.) ([5]; 100 uM (H2O2 concentration), 2 h at 37° C., then 1 h radiolabelled leucine, n=4-5) | stimulation of leucine incorporation (in words) ([5]; vanadate alone, 2-100 uM) | effect on blood glucose (in words) [6] | IGF-2 binding, % of control [7] | augmentation of kinase activity over control ([8]; 10^-3 M alone) | maximal effect relative to maximal doses of insulin (IGF-II binding) [9] | effect in lowering blood sugar (in words) [10] | activity at 100 µM ([5]; Adipocyte, 100 uM (H2O2 concentration), 2 h at 37° C., then 1 h radiolabelled leucine, n=4-5, read-out: Leucine Incorp (% of control ± S.E.)) | augmentation of kinase activity over control ([8]; insulin 10 ng/ml alone)
[O]=[V]([O-])([O-])[O-] [Vanadate, vanadate] | 10^-4 M | weak mimicker of insulin action | 10^-3 M | lower blood glucose | improve cardiac performance | 101 ± 5.0 % of control | 104 ± 3.5 % of control | 105 ± 6.0 % of control | 107 ± 8.0 % of control | does not significantly stimulate leucine incorporation | no effect | 172 ± 10 % of control | 32% | about 60% | no effect at all | – | –
OO [H2 O2, hydrogen peroxide] | – | – | – | – | – | – | – | – | – | – | – | 138 ± 12 % of control | – | – | – | 105 ± 4.7% | –
Insulin: insulin | – | – | – | – | – | – | – | – | – | – | – | – | – | – | – | – | 349%
